Measurements: paper PMC12250624, “Anti-Amyloid Aggregation Effects of Gobaishi (Galla chinensis) and Its Active Constituents” (Molecules, 2025)

Biological target: T1, Aβ42 (amyloid-beta) (Homo sapiens, UniProt P05067)
T1 construct: gene APP; Aβ42
Assay: ThT fibril aggregation assay, […] Aβ[…] h at […] °C
Assay type: biochemical

T1 sequence (P05067 672-713): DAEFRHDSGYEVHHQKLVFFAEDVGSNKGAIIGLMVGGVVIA

O=C(/C=C/c1ccc(O)c(O)c1)O[C@H](Cc1ccc(O)c(O)c1)C(=O)O [Rosmarinic acid]
EC50: 15 µM
